Experimental data published in patent US12139492B2 (Endotarget Inc., priority 2021, dated 2024).
Like-named read-outs stand apart in the source and are kept apart here.

Tests used:
Mino cells = assay: Antiproliferative effect, MTS cell viability assay, Mino cells; format: cell-based; conditions: Homo sapiens, MINO, Mino mantle cell lymphoma cells; read-out: IC50 (anti-proliferation) Mino cells
Summary of the method: (§1)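 Absorbance at 490 nm of formazan, formed by metabolically active cells from MTS tetrazolium, served as the viability measure after a 72 h treatment across a 0.001–10 μM concentration series plus untreated control.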

JeKo-1 cells = assay: Antiproliferative effect, MTS cell viability assay, JeKo-1 cells; format: cell-based; conditions: Homo sapiens; JeKo-1 mantle cell lymphoma cells; read-out: IC50 (anti-proliferation) JeKO-1 cells
Summary of the method: as §1

BTK = BTK (Homo sapiens, UniProt Q06187); assay: Degradation of BTK protein in Namalwa cells (Western blot; DC50, Dmax); conditions: for DC50: cell line not given
Sequence of BTK (Q06187 whole entry): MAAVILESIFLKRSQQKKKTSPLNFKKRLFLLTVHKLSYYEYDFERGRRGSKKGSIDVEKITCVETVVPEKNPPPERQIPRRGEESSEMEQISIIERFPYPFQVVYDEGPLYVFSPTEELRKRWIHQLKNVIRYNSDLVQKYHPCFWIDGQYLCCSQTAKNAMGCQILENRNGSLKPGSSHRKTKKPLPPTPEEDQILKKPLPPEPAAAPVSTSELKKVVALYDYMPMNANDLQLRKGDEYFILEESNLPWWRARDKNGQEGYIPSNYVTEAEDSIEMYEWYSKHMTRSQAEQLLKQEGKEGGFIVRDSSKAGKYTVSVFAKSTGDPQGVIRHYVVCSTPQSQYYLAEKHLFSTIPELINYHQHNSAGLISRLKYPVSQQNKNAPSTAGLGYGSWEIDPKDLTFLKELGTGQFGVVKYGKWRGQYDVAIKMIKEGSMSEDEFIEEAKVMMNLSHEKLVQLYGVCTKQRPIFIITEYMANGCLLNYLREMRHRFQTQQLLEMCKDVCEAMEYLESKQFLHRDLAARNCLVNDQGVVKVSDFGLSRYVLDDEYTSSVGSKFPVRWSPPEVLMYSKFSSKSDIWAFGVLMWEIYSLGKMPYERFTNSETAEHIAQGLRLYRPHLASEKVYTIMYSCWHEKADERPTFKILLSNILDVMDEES

[1] = read-out: Dmax (BTK degradation)
[2] = read-out: DC50 (BTK degradation), concentration giving 50% reduction of BTK expression level

Dmax (BTK; [1]) | Dmax (BTK) | DC50 (BTK; BTK degradation) | DC50 (BTK; [2]) | degradation of BTK protein (BTK; Namalwa B lymphocyte cells, various concentrations, 24 hours, Western blot) | Compound | IC50 (Mino cells) | IC50 (JeKo-1 cells)
> 90% | – | – | – | – | Nc1ncnc2c1c(-c1ccc(Oc3ccccc3)cc1)nn2C1CCN([C@H]2CCN(CC3CN(c4ccc5c(c4)C(=O)N(C4CCC(=O)NC4=O)C5=O)C3)C2)CC1 (stereo partly drawn) [Compound 425b, 5-(3-(((S)-3-(4-(4-amino-3-(4-phenoxyphenyl)-1H-pyrazolo[3,4-d]pyrimidin-1-yl)piperidin-1-yl)pyrrolidin-1-yl)methyl)azetidin-1-yl)-2-(2,6-dioxopiperidin-3-yl)isoindoline-1,3-dione] | 1000 to 10000 nM | 1000 to 10000 nM
– | > 90% | 10 to 50 nM | – | – | NC(=O)c1c(-c2ccc(Oc3ccccc3)cc2)nn2c1NCC[C@H]2C1CCN(C2CCN(C(=O)N3CCN(CC4CCN(c5ccc6c(c5)CN(C5CCC(=O)NC5=O)C6=O)CC4)CC3)CC2)CC1 (stereo partly drawn) [Compound 392, (7S)-7-(1′-(4-((1-(2-(2,6-dioxopiperidin-3-yl)-1-oxoisoindolin-5-yl)piperidin-4-yl)methyl)piperazine-1-carbonyl)-[1,4′-bipiperidin]-4-yl)-2-(4-phenoxyphenyl)-4,5,6,7-tetrahydropyrazolo[1,5-a]pyrimidine-3-carboxamide] | < 1000 nM | 1000 to 10000 nM
> 90% | – | – | 10 to 50 nM | – | NC1=NC=NC2C1C(c1ccc(Oc3ccccc3)cc1)=NN2C1CCCN(C2CN(C(=O)N3CC(C4CN(c5ccc6c(c5)CN(C5CCC(=O)NC5=O)C6=O)C4)C3)C2)C1 (centres unmarked) [Compound 502] | < 1000 nM | < 1000 nM
– | > 90% | 10 to 50 nM | – | – | NC(=O)c1c(-c2ccc(Oc3ccccc3)cc2)nn2c1NCCC2C1CCN(CC2CCN(CC3CCN(c4ccc5c(c4)C(=O)N(C4CCC(=O)NC4=O)C5=O)CC3)CC2)CC1 (centres unmarked) [Compound 313, 7-(1-((1-((1-(2-(2,6-dioxopiperidin-3-yl)-1,3-dioxoisoindolin-5-yl)piperidin-4-yl)methyl)piperidin-4-yl)methyl)piperidin-4-yl)-2-(4-phenoxyphenyl)-4,5,6,7-tetrahydropyrazolo[1,5-a]pyrimidine-3-carboxamide] | 1000 to 10000 nM | 1000 to 10000 nM
– | > 90% | 10 to 50 nM | – | – | Nc1ncnc2c1c(-c1ccc(Oc3ccccc3)cc1)nn2C1CCN(C2CCN(C(=O)N3CCC(CCN4CCN(c5ccc6c(c5)C(=O)N(C5CCC(=O)NC5=O)C6=O)CC4)CC3)CC2)CC1 (centres unmarked) [Compound 251, 5-(4-(2-(1-(4-(4-amino-3-(4-phenoxyphenyl)-1H-pyrazolo[3,4-d]pyrimidin-1-yl)-[1,4′-bipiperidine]-1′-carbonyl)piperidin-4-yl)ethyl)piperazin-1-yl)-2-(2,6-dioxopiperidin-3-yl)isoindoline-1,3-dione] | < 1000 nM | 1000 to 10000 nM
> 75% | – | – | 10 to 50 nM | – | Nc1ncnc2c1c(-c1ccc(Oc3ccccc3)cc1)nn2C1CCN(CCN2CCC(CN3CCC(c4ccc5c(c4)oc(=O)n5C4CCC(=O)NC4=O)CC3)C2)CC1 (centres unmarked) [Compound 542, 3-(6-(1-((1-(2-(4-(4-amino-3-(4-phenoxyphenyl)-1H-pyrazolo[3,4-d]pyrimidin-1-yl)piperidin-1-yl)ethyl)pyrrolidin-3-yl)methyl)piperidin-4-yl)-2-oxobenzo[d]oxazol-3(2H)-yl)piperidine-2,6-dione] | 1000 to 10000 nM | 1000 to 10000 nM
– | > 75% | > 50 nM | – | – | NC(=O)c1c(-c2ccc(Oc3ccccc3)cc2)nn2c1NCCC2C1CCN(CC2CCN(C(=O)N3CCN(Cc4ccc5c(c4)CN(C4CCC(=O)NC4=O)C5=O)CC3)CC2)CC1 (centres unmarked) [Compound 360, 7-(1-((1-(4-((2-(2,6-dioxopiperidin-3-yl)-1-oxoisoindolin-5-yl)methyl)piperazine-1-carbonyl)piperidin-4-yl)methyl)piperidin-4-yl)-2-(4-phenoxyphenyl)-4,5,6,7-tetrahydropyrazolo[1,5-a]pyrimidine-3-carboxamide] | > 10000 nM | > 10000 nM
– | > 90% | 10 to 50 nM | – | – | Nc1ncnc2c1c(-c1ccc(Oc3ccccc3)cc1)nn2C1CCN(C2CCN(C(=O)N3CCN(CCN4CCC(c5ccc6c(c5)CN(C5CCC(=O)NC5=O)C6=O)CC4)CC3)CC2)CC1 (centres unmarked) [Compound 250] | 1000 to 10000 nM | 1000 to 10000 nM
– | > 90% | 10 to 50 nM | – | – | NC(=O)c1c(-c2ccc(Oc3ccccc3)cc2)nn2c1NCC[C@H]2C1CCN(C(=O)N2CCN(CC3CCN(c4ccc5c(c4)C(=O)N(C4CCC(=O)NC4=O)C5=O)CC3)CC2)CC1 (stereo partly drawn) [Compound 289, (7S)-7-(1-(4-((1-(2-(2,6-dioxopiperidin-3-yl)-1,3-dioxoisoindolin-5-yl)piperidin-4-yl)methyl)piperazine-1-carbonyl)piperidin-4-yl)-2-(4-phenoxyphenyl)-4,5,6,7-tetrahydropyrazolo[1,5-a]pyrimidine-3-carboxamide] | 1000 to 10000 nM | < 1000 nM
> 50% | – | – | > 50 nM | – | Nc1ncnc2c1c(-c1ccc(Oc3ccccc3)cc1)nn2C1CCN(CCN2CCC(CN3CCN(c4ccc5c(c4)CN(C4CCC(=O)NC4=O)C5=O)CC3)CC2)CC1 (centres unmarked) [Compound 454, 3-(5-(4-((1-(2-(4-(4-amino-3-(4-phenoxyphenyl)-1H-pyrazolo[3,4-d]pyrimidin-1-yl)piperidin-1-yl)ethyl)piperidin-4-yl)methyl)piperazin-1-yl)-1-oxoisoindolin-2-yl)piperidine-2,6-dione] | > 10000 nM | 1000 to 10000 nM
– | > 50% | > 50 nM | – | – | NC(=O)c1c(-c2ccc(Oc3ccccc3)cc2)nn2c1NCCC2C1CCN(C2CCN(C(=O)N3CCN(c4ccc5c(c4)C(=O)N(C4CCC(=O)NC4=O)C5=O)CC3)CC2)CC1 (centres unmarked) [Compound 337, 7-(1′-(4-(2-(2,6-dioxopiperidin-3-yl)-1,3-dioxoisoindolin-5-yl)piperazine-1-carbonyl)-[1,4′-bipiperidin]-4-yl)-2-(4-phenoxyphenyl)-4,5,6,7-tetrahydropyrazolo[1,5-a]pyrimidine-3-carboxamide] | > 10000 nM | 1000 to 10000 nM
> 90% | – | – | 10 to 50 nM | dose-dependent degradation | Nc1ncnc2c1c(-c1ccc(Oc3ccccc3)cc1)nn2C1CCN(CC2CCN(CC3CN(c4ccc5c(c4)C(=O)N(C4CCC(=O)NC4=O)C5=O)C3)C2)CC1 (centres unmarked) [Compound 423, 5-(3-((3-((4-(4-amino-3-(4-phenoxyphenyl)-1H-pyrazolo(3,4-d)pyrimidin-1-yl)piperidin-1-yl)methyl)pyrrolidin-1-yl)methyl)azetidin-1-yl)-2-(2,6-dioxopiperidin-3-yl)isoindoline-1,3-dione] | < 1000 nM | 1000 to 10000 nM
> 90% | – | – | 10 to 50 nM | – | Nc1ncnc2c1c(-c1ccc(Oc3ccccc3)cc1)nn2C1CCN(C2CCN(CCN3CCC(c4ccc(N5CCC(=O)NC5=O)cc4)CC3)CC2)CC1 [Compound 569, 1-(4-(1-(2-(4-(4-amino-3-(4-phenoxyphenyl)-1H-pyrazolo[3,4-d]pyrimidin-1-yl)-[1,4′-bipiperidin]-1′-yl)ethyl)piperidin-4-yl)phenyl)dihydropyrimidine-2,4(1H,3H)-dione] | 1000 to 10000 nM | 1000 to 10000 nM
> 90% | – | – | 10 to 50 nM | – | Nc1ncnc2c1c(-c1ccc(Oc3ccccc3)cc1)nn2C1CCN([C@@H]2CCN(CC3CN(c4ccc5c(c4)C(=O)N(C4CCC(=O)NC4=O)C5=O)C3)C2)CC1 (stereo partly drawn) [Compound 425a, 5-(3-(((R)-3-(4-(4-amino-3-(4-phenoxyphenyl)-1H-pyrazolo[3,4-d]pyrimidin-1-yl)piperidin-1-yl)pyrrolidin-1-yl)methyl)azetidin-1-yl)-2-(2,6-dioxopiperidin-3-yl)isoindoline-1,3-dione] | 1000 to 10000 nM | 1000 to 10000 nM
– | > 90% | < 10 nM | – | – | NC(=O)c1c(-c2ccc(Oc3ccccc3)cc2)nn2c1NCC[C@H]2C1CCN(C(=O)N2CCC(CN3CCC(c4ccc5c(c4)CN(C4CCC(=O)NC4=O)C5=O)CC3)CC2)CC1 (stereo partly drawn) [Compound 296, (7S)-7-(1-(4-((4-(2-(2,6-dioxopiperidin-3-yl)-1-oxoisoindolin-5-yl)piperidin-1-yl)methyl)piperidine-1-carbonyl)piperidin-4-yl)-2-(4-phenoxyphenyl)-4,5,6,7-tetrahydropyrazolo[1,5-a]pyrimidine-3-carboxamide] | < 1000 nM | 1000 to 10000 nM
– | > 50% | > 50 nM | – | – | NC(=O)c1c(-c2ccc(Oc3ccccc3)cc2)nn2c1NCCC2C1CCN(CC2CCN(C(=O)N3CCN(c4ccc5c(c4)C(=O)N(C4CCC(=O)NC4=O)C5=O)CC3)CC2)CC1 (centres unmarked) [Compound 357, 7-(1-((1-(4-(2-(2,6-dioxopiperidin-3-yl)-1,3-dioxoisoindolin-5-yl)piperazine-1-carbonyl)piperidin-4-yl)methyl)piperidin-4-yl)-2-(4-phenoxyphenyl)-4,5,6,7-tetrahydropyrazolo[1,5-a]pyrimidine-3-carboxamide] | > 10000 nM | > 10000 nM
> 90% | – | – | 10 to 50 nM | – | Nc1ncnc2c1c(-c1ccc(Oc3ccccc3)cc1)nn2C1CCN(CCN2CCC(CSc3ccc4c(c3)C(=O)N(C3CCC(=O)NC3=O)C4=O)C2)CC1 (centres unmarked) [Compound 473, 5-(((1-(2-(4-(4-amino-3-(4-phenoxyphenyl)-1H-pyrazolo[3,4-d]pyrimidin-1-yl)piperidin-1-yl)ethyl)pyrrolidin-3-yl)methyl)thio)-2-(2,6-dioxopiperidin-3-yl)isoindoline-1,3-dione] | 1000 to 10000 nM | 1000 to 10000 nM
